Data from patent US20170190671A1, “BIS(ARYL)CATECHOL DERIVATIVES AS HERBICIDES” (E I DU PONT DE NEMOURS AND COMPANY, priority 2014, published 2017).

Columns and labels:
[1] = test system: oilseed rape (Brassica napus); experiment: Test C preemergence; assay type: in vivo; conditions: Brassica napus, pre-emergence, scale 0 to 100, read-out: Plant response rating, Oilseed Rape
Procedure, shortened: (§1)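 Steps: plant seeds in loam-sand soil and treat preemergence, or grow plants in peat-based medium to 2-18 cm and spray; compound formulated in non-phytotoxic solvent/surfactant; hold in greenhouse 13-15 days; score visually versus controls from 0 (no effect) to 100 (complete control).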

[2] = test system: waterhemp (common waterhemp, Amaranthus rudis); experiment: Test C preemergence; assay type: in vivo; conditions: Amaranthus tuberculatus, pre-emergence, scale 0 to 100, read-out: Plant response rating, Waterhemp
Procedure, shortened: as §1

[3] = test system: morningglory (Ipomoea coccinea); experiment: Test C preemergence; assay type: in vivo; conditions: Ipomoea, pre-emergence, 336 h, scale 0 to 100, read-out: Plant response rating, Morningglory
Procedure, shortened: as §1

[4] = test system: galium (catchweed bedstraw, Galium aparine); experiment: Test C preemergence; assay type: in vivo; conditions: Galium, pre-emergence, 336 h, scale 0 to 100, read-out: Plant response rating, Galium
Procedure, shortened: as §1

[5] = test system: Italian ryegrass (Lolium multiflorum); experiment: Test C postemergence; assay type: in vivo; conditions: Lolium multiflorum, post-emergence, 336 h, Postemergence, scale 0 to 100, read-out: Plant response rating, Ryegrass, Italian
[6] = test system: large (Lg) crabgrass (Digitaria sanguinalis); experiment: Test C postemergence; assay type: in vivo; conditions: Digitaria sanguinalis, post-emergence, 336 h, Postemergence, scale 0 to 100, read-out: Plant response rating, Crabgrass, Large
[7] = test system: johnsongrass (Sorghum halepense); experiment: Test C postemergence; assay type: in vivo; conditions: Sorghum halepense, post-emergence, 336 h, Postemergence, scale 0 to 100, read-out: Plant response rating, Johnsongrass
[8] = test system: pigweed (Amaranthus retroflexus); experiment: Test C postemergence; assay type: in vivo; conditions: Amaranthus retroflexus, post-emergence, 336 h, Postemergence, scale 0 to 100, read-out: Plant response rating, Pigweed
[9] = test system: blackgrass (Alopecurus myosuroides); experiment: Test C postemergence; assay type: in vivo; conditions: Alopecurus myosuroides, post-emergence, 336 h, Postemergence, scale 0 to 100, read-out: Plant response rating, Blackgrass
[10] = test system: barnyardgrass (Echinochloa crus-galli); experiment: Test C postemergence; assay type: in vivo; conditions: Echinochloa crus-galli, post-emergence, Postemergence, scale 0 to 100, read-out: Plant response rating, Barnyardgrass
[11] = test system: oilseed rape (Brassica napus); experiment: Test C postemergence; assay type: in vivo; conditions: Brassica napus, post-emergence, Postemergence, scale 0 to 100, read-out: Plant response rating, Oilseed Rape
[12] = test system: chickweed (common chickweed, Stellaria media); experiment: Test C postemergence; assay type: in vivo; conditions: Stellaria media, post-emergence, Postemergence, scale 0 to 100, read-out: Plant response rating, Chickweed
[13] = test system: ragweed (common ragweed, Ambrosia elatior); experiment: Test C postemergence; assay type: in vivo; conditions: Ambrosia artemisiifolia, post-emergence, 336 h, Postemergence, scale 0 to 100, read-out: Plant response rating, Ragweed
[14] = test system: lambsquarters (Chenopodium album); experiment: Test C postemergence; assay type: in vivo; conditions: Chenopodium album, post-emergence, 336 h, Postemergence, scale 0 to 100, read-out: Plant response rating, Lambsquarters
[15] = test system: velvetleaf (Abutilon theophrasti); experiment: Test C postemergence; assay type: in vivo; conditions: Abutilon theophrasti, post-emergence, Postemergence, scale 0 to 100, read-out: Plant response rating, Velvetleaf
corn (Zea mays) = experiment: Test C postemergence; assay type: in vivo; conditions: Zea mays, post-emergence, 336 h, Postemergence, scale 0 to 100
kochia (Kochia scoparia) = experiment: Test C postemergence; assay type: in vivo; conditions: Bassia scoparia, post-emergence, Postemergence, scale 0 to 100, read-out: Plant response rating, Kochia
soybean (Glycine max) = experiment: Test C postemergence; assay type: in vivo; conditions: Glycine max, post-emergence, Postemergence, scale 0 to 100, read-out: Plant response rating, Soybean
[16] = test system: waterhemp (common waterhemp, Amaranthus rudis); experiment: Test C postemergence; assay type: in vivo; conditions: Amaranthus tuberculatus, post-emergence, Postemergence, scale 0 to 100, read-out: Plant response rating, Waterhemp
[17] = test system: winter wheat (Triticum aestivum); experiment: Test C postemergence; assay type: in vivo; conditions: Triticum aestivum, post-emergence, 336 h, Postemergence, scale 0 to 100, read-out: Plant response rating, Wheat
[18] = test system: yellow nutsedge (Cyperus esculentus); experiment: Test C postemergence; assay type: in vivo; conditions: Cyperus, post-emergence, 336 h, Postemergence, scale 0 to 100, read-out: Plant response rating, Nutsedge, Yellow
wild oat (Avena fatua) = experiment: Test C postemergence; assay type: in vivo; conditions: Avena fatua, post-emergence, Postemergence, scale 0 to 100, read-out: Plant response rating, Oat, Wild

SMILES: N#Cc1cccc(Oc2ncc(Cl)cn2)c1Oc1ncc(C(F)(F)F)cn1 [Compound 38, 3-[(5-chloro-2-pyrimidinyl)oxy]-2-[[5-(trifluoromethyl)-2-pyrimidinyl]oxy]-benzonitrile]
- plant injury at 31 g/ha ([1]; 31 g ai/ha, preemergence): 100%
- plant injury at 62 g/ha ([1]; 62 g ai/ha, preemergence): 100%
- plant injury at 125 g/ha ([1]; 125 g ai/ha, preemergence): 100%
- plant injury at 16 g/ha ([1]; Preemergence, 16 g ai/ha): 90%
- pest or weed control at 31 g/ha ([2]; 31 g ai/ha, preemergence): 100%
- pest or weed control at 62 g/ha ([2]; 62 g ai/ha, preemergence): 100%
- pest or weed control at 125 g/ha ([2]; 125 g ai/ha, preemergence): 100%
- pest or weed control at 16 g/ha ([2]; Preemergence, 16 g ai/ha): 100%
- pest or weed control at 31 g/ha ([3]; 31 g ai/ha, preemergence): 80%
- pest or weed control at 62 g/ha ([3]; 62 g ai/ha, preemergence): 95%
- pest or weed control at 125 g/ha ([3]; 125 g ai/ha, preemergence): 100%
- pest or weed control at 16 g/ha ([3]; Preemergence, 16 g ai/ha): 40%
- pest or weed control at 31 g/ha ([4]; 31 g ai/ha, preemergence): 90%
- pest or weed control at 62 g/ha ([4]; 62 g ai/ha, preemergence): 100%
- pest or weed control at 125 g/ha ([4]; 125 g ai/ha, preemergence): 100%
- pest or weed control at 16 g/ha ([4]; Preemergence, 16 g ai/ha): 80%
- melting point: 101 to 103 °C
- pest or weed control at 31 g/ha ([5]; 31 g ai/ha): 5%
- pest or weed control at 62 g/ha ([5]; 62 g ai/ha): 5%
- pest or weed control at 125 g/ha ([5]; 125 g ai/ha): 5%
- pest or weed control at 16 g/ha ([6]; 16 g ai/ha): 5%
- pest or weed control at 31 g/ha ([6]; 31 g ai/ha): 10%
- pest or weed control at 62 g/ha ([6]; 62 g ai/ha): 10%
- pest or weed control at 125 g/ha ([6]; 125 g ai/ha): 30%
- pest or weed control at 16 g/ha ([7]; 16 g ai/ha): 5%
- pest or weed control at 31 g/ha ([7]; 31 g ai/ha): 5%
- pest or weed control at 62 g/ha ([7]; 62 g ai/ha): 5%
- pest or weed control at 125 g/ha ([7]; 125 g ai/ha): 10%
- pest or weed control at 31 g/ha ([8]; 31 g ai/ha): 85%
- pest or weed control at 62 g/ha ([8]; 62 g ai/ha): 90%
- pest or weed control at 125 g/ha ([8]; 125 g ai/ha): 90%
- pest or weed control at 16 g/ha ([9]; 16 g ai/ha): 0%
- pest or weed control at 31 g/ha ([9]; 31 g ai/ha): 0%
- pest or weed control at 62 g/ha ([9]; 62 g ai/ha): 10%
- pest or weed control at 125 g/ha ([9]; 125 g ai/ha): 15%
- pest or weed control at 16 g/ha ([10]; 16 g ai/ha): 10%
- pest or weed control at 31 g/ha ([10]; 31 g ai/ha): 20%
- pest or weed control at 62 g/ha ([10]; 62 g ai/ha): 20%
- pest or weed control at 125 g/ha ([10]; 125 g ai/ha): 35%
- plant injury at 31 g/ha ([11]; 31 g ai/ha): 20%
- plant injury at 62 g/ha ([11]; 62 g ai/ha): 25%
- plant injury at 125 g/ha ([11]; 125 g ai/ha): 5%
- pest or weed control at 16 g/ha ([12]; 16 g ai/ha): 50%
- pest or weed control at 31 g/ha ([12]; 31 g ai/ha): 50%
- pest or weed control at 62 g/ha ([12]; 62 g ai/ha): 70%
- pest or weed control at 125 g/ha ([12]; 125 g ai/ha): 85%
- pest or weed control at 31 g/ha ([13]; 31 g ai/ha): 55%
- pest or weed control at 62 g/ha ([13]; 62 g ai/ha): 70%
- pest or weed control at 125 g/ha ([13]; 125 g ai/ha): 50%
- pest or weed control at 16 g/ha ([14]; 16 g ai/ha): 65%
- pest or weed control at 31 g/ha ([14]; 31 g ai/ha): 70%
- pest or weed control at 62 g/ha ([14]; 62 g ai/ha): 80%
- pest or weed control at 125 g/ha ([14]; 125 g ai/ha): 90%
- pest or weed control at 31 g/ha ([15]; 31 g ai/ha): 65%
- pest or weed control at 62 g/ha ([15]; 62 g ai/ha): 55%
- pest or weed control at 125 g/ha ([15]; 125 g ai/ha): 60%
- Corn plant response rating (crop injury, 0 = no effect, 100 = complete kill) at 16 g/ha (corn (Zea mays); 16 g ai/ha): 10%
- Corn plant response rating (crop injury, 0 = no effect, 100 = complete kill) at 31 g/ha (corn (Zea mays); 31 g ai/ha): 20%
- Corn plant response rating (crop injury, 0 = no effect, 100 = complete kill) at 62 g/ha (corn (Zea mays); 62 g ai/ha): 15%
- Corn plant response rating (crop injury, 0 = no effect, 100 = complete kill) at 125 g/ha (corn (Zea mays); 125 g ai/ha): 15%
- pest or weed control at 16 g/ha (kochia (Kochia scoparia); 16 g ai/ha): 90%
- pest or weed control at 31 g/ha (kochia (Kochia scoparia); 31 g ai/ha): 90%
- pest or weed control at 62 g/ha (kochia (Kochia scoparia); 62 g ai/ha): 90%
- pest or weed control at 125 g/ha (kochia (Kochia scoparia); 125 g ai/ha): 95%
- plant injury at 31 g/ha (soybean (Glycine max); 31 g ai/ha): 85%
- plant injury at 62 g/ha (soybean (Glycine max); 62 g ai/ha): 50%
- plant injury at 125 g/ha (soybean (Glycine max); 125 g ai/ha): 80%
- pest or weed control at 31 g/ha ([16]; 31 g ai/ha): 75%
- pest or weed control at 62 g/ha ([16]; 62 g ai/ha): 85%
- pest or weed control at 125 g/ha ([16]; 125 g ai/ha): 95%
- plant injury at 31 g/ha ([17]; 31 g ai/ha): 0%
- plant injury at 62 g/ha ([17]; 62 g ai/ha): 0%
- plant injury at 125 g/ha ([17]; 125 g ai/ha): 0%
- pest or weed control at 31 g/ha ([18]; 31 g ai/ha): 0%
- pest or weed control at 62 g/ha ([18]; 62 g ai/ha): 5%
- pest or weed control at 125 g/ha ([18]; 125 g ai/ha): 10%
- pest or weed control at 31 g/ha (wild oat (Avena fatua); 31 g ai/ha): 5%
- pest or weed control at 62 g/ha (wild oat (Avena fatua); 62 g ai/ha): 10%
- pest or weed control at 125 g/ha (wild oat (Avena fatua); 125 g ai/ha): 10%
